In US6472369B1, “Anticancer compounds and methods” (The Regents of the University of Michigan, priority 1996, dated 2002):

Key:
[1] = system: metastatic DU-145 prostate cancer cells; experiment: SU-ECM invasion assay, DU-145 prostate cancer cells; format: cell-based, human; details: for inhibition of serum-induced invasion of SU-ECM: DU-145, 10% serum, FIG. 6A; for inhibition of PHSRN-induced invasion of SU-ECM: DU-145, serum-free medium, 100 ng per ml PHSRN, FIG. 6B
[2] = system: normal human mammary epithelial cells; experiment: SU-ECM invasion assay, normal human mammary epithelial cells; format: cell-based; details: 10% FCS, 100 ng per ml PHSRN, FIG. 5B
Procedure: Adult Strongylocentrotus purpuratus sea urchins were obtained from Pacific BioMarine, and their embryos were cultured to the early pluteus stage in artificial sea water at 15° C. SU-ECM were prepared from them by treatment with nonionic detergent and strerilized by dilution in the appropriate media. […]
Invasion assays were coded and scored blindly by microscopic examination under phase contrast at 200- and 400-fold magnification. Each cell contacting an SU-ECM was scored for its position relative to the exterior or interior surfaces. […] The minimum viability of the cells in each assay was always ascertained at the time of assay by determining the fraction of spread, adherent cells on the bottom of each well scored.
An invasion frequency is defined as the fraction of cells in contact with basement membranes which were located in their interiors at the time of assay. […] Invasion frequencies were determined multiple times for each cell type assayed. For each type of cell assayed the mean and standard deviation of the invasion frequencies were calculated. […]

[3] = system: MatLyLu (MLL) tumors; experiment: MLL prostate tumor growth and metastasis in rats, treatment begun with cell injection (Example 12); format: in vivo, Copenhagen rats
Procedure: In the first part of this example, four Copenhagen rats were injected with 500,000 MatLyLu (MLL) cells subcutaneously in the thigh. Two of these rats also received 1 mg of the PHSCN (SEQ ID NO:86) peptide along with the injected MLL cells, and thereafter received 1 mg of the PHSCN (SEQ ID NO:86) peptide injected in their tail vein three time per week for two weeks. The other two injected rats were left untreated. Tumor sizes were measured with calipers on day 14, and the tumors in the untreated rats were removed. […] It is possible that the ability of the PHSCN (SEQ ID NO:86) peptide to slow tumor growth is due to its inhibition of tumor invasion by normal endothelial cells, an anti-angiogenic effect.
Two weeks after the size of the tumors were measured, the rats were sacrificed and the mean number of lung metastases was determined at 10-fold magnification. The mean number of lung metastases in the untreated mice (MLL only) was nearly 35 in spite of the fact that the initial prostate tumors had been removed when their size was measured. The mean number of lung metastases in the treated mice (MLL +PHSCN (SEQ ID NO:86)) was less than 5, even though the initial prostate tumors were never removed because they were too small. […] In this manner, the PHSCN (SEQ ID NO:86) peptide provides effective in vivo therapy for cancer by preventing the lethal effects of tumor cell growth and metastasis.

[4] = system: MatLyLu (MLL) tumors; experiment: MLL prostate tumor growth and metastasis in rats, treatment begun after 24 hours (Example 13); format: in vivo, Copenhagen rats
Procedure: In the first part of this example, 20 Copenhagen rats were injected with 500,000 MatLyuLu (MLL) cells subcutaneously in the thigh. To more closely approximate a real clinical situation, PHSCN (SEQ ID NO:86) peptide treatment of 10 of these rats was initiated after 24 hours, instead of immediately. The 10 treated rats (MLL/PHSCN (SEQ ID NO:86)) received a total of 5 i.v. injections of 1 mg of the PHSCN (SEQ ID NO:86) peptide through the tail vein over two weeks. Tumor sizes were measured with calipers on day 14, and the tumors in the untreated rats were removed. Since the injected tumors in the MLL/PHSCN (SEQ ID NO:86) rats were still small, they were retained in the rats for another 7 to 9 days following the last PHSCN (SEQ ID NO:86) injection. At this time, their sizes were all greater than 2 cm, and they were also removed.
In the second part of this example, the MLL/PHSCN (SEQ ID NO:86) rats received 2 more i.v. doses of the PHSCN (SEQ ID NO:86) peptide prior to sacrifice. Ten days after the sizes of the injected primary tumors were determined, all the rats in the two groups (MLL only and MLL/PHSCN (SEQ ID NO:86)) were sacrificed, and the number of lung metastases was determined at 7.5-fold magnification.
The 20 rats described in parts one and two of this example were also examined for metastatic tissues in […]. All of these metastases were dissected and weighed. FIG. 10C plots the mean masses of intraperitoneal metastases (grams) for the two groups of 10 rats. […] This may be due to the anti-angiogenic effect of the PHSCN (SEQ ID NO:86) peptide, as described in part one of this example. In this manner, the PHSCN (SEQ ID NO:86) peptide maybe an effective anti-metastatic, growth-inhibiting chemotherapeutic agent for use in the treatment of cancer.

Substance: Pro-His-Ser-Cys-Asn (PHSCN)
- inhibition of serum-induced invasion of SU-ECM ([1]; relatively high concentrations): complete inhibition
- inhibition of serum-induced invasion of SU-ECM ([1]; relatively low concentrations): substantial inhibitory affect
- inhibition of PHSRN-induced invasion of SU-ECM ([1]; higher concentrations): almost complete inhibition
- inhibition of PHSRN-induced invasion of SU-ECM ([1]; low concentrations): substantial inhibitory affect
- inhibition of PHSRN-induced invasion of SU-ECM ([2]; higher concentrations): almost complete inhibition
- inhibition of PHSRN-induced invasion of SU-ECM ([2]; low concentrations): substantial inhibitory affect
- growth of injected MLL tumors (tumor size, calipers) ([3]; day 14, 1 mg with cells, then 1 mg tail vein three times per week for two weeks, FIG. 9A): significantly slows the growth
- mean number of lung metastases ([3]; two weeks after tumor measurement, 10-fold magnification, primary tumors not removed, FIG. 9B): less than 5
- tumor size ([4]; 7 to 9 days following the last PHSCN injection): greater than 2 cm
- mean numbers of lung metastases ([4]; compared to untreated rats, 7.5-fold magnification, ten days after tumor sizing, FIG. 10B): significant reduction
- mean masses of intraperitoneal (lymphatic) metastases ([4]; compared to untreated rats, FIG. 10C): significant reduction
- growth of rat prostate cancer tumors (tumor size, calipers) ([4]; day 14, 5 i.v. injections of 1 mg over two weeks, started after 24 hours, FIG. 10A): substantially slows the growth
